Results taken from US5622962A, “5α-reductase inhibitors” (priority 1995, dated 1997).
“And” between values parts separate entries of the source, which are not always exact repeats. Equal values may be shown once.

How the values were obtained:
[1] = molecular target: T1, Type II 5α-Reductase from Human Prostate (Homo sapiens, UniProt P31213); assay: Human Type II 5α-reductase assay (conversion of [3H]-testosterone to 5α-reduced metabolites); assay type: biochemical; conditions: sodium acetate pH 5.5, 25°, 30 min, compared to control reaction mixtures; for inhibition at 0.3 µM: pH 5.5, 0.3 μM, read-out: percent inhibition of Type II AR; for percent inhibition of Type II AR: 0.3 μM
T1 construct: The same procedure as above was used for preparations using tissue from prostate surgery; from tissue; host or cells: human prostate tissue from surgery, homogenate, 100,000×g pellet
T1 sequence (P31213 1-254): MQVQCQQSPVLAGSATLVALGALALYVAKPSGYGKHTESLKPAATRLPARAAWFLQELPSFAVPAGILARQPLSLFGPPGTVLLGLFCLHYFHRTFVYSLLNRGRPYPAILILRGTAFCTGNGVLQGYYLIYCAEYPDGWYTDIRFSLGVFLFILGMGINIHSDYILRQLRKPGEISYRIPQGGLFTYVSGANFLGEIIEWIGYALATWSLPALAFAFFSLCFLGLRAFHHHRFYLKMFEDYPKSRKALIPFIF

[2] = molecular target: T2, Type I 5α-Reductase from Human Scalp (Homo sapiens, UniProt P18405); assay: Human Type I 5α-reductase assay (conversion of [3H]-testosterone to 5α-reduced metabolites); assay type: biochemical; conditions: 50 nM [3H]-testosterone, pH 7.5, 25°, 180 min, compared to control reaction mixtures; for inhibition at 0.3 µM: pH 7.5, 0.3 μM, read-out: percent inhibition of Type I AR
T2 construct: Scalp punch biopsies from graft recipient sites were obtained from human hair transplant procedures; from tissue; host or cells: human scalp punch biopsies (hair transplant graft recipient sites), homogenate, 100,000×g pellet
T2 sequence (P18405 1-259): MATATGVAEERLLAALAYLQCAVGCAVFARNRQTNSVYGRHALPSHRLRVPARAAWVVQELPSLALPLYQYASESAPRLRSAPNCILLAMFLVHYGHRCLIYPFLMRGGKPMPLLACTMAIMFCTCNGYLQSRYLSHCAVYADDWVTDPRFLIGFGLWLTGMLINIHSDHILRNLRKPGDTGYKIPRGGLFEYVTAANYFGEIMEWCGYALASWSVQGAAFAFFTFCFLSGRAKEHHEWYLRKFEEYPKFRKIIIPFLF

SMILES: Cc1ccccc1Sc1ccc2c(c1)CC[C@H]1NC(=O)CC[C@]21C [Example 9, (+)-(4aR)-(10bR)-8-(2-methylphenylthio)-10b-methyl-1,2,3,4,4a,5,6,10b-octahydrobenzo[f]quinolin-3-one]
- inhibition at 0.3 µM [1]: 31%
- inhibition at 0.3 µM [2]: 3%

SMILES: CN1C(=O)CC[C@]2(C)c3ccc(-c4cc(C(C)(C)C)c(O)c(C(C)(C)C)c4)cc3CC[C@@H]12 [Example 30, (+)-(4aR)-(10bR)-4-methyl-8-(3,5-di [t-butyl]-4-hydroxyphenyl)-10b-methyl-1,2,3,4,4a,5,6,10b-octahydrobenzo[f]quinolin-3-one]
- inhibition at 0.3 µM [1]: 21%
- inhibition at 0.3 µM [2]: 19%

SMILES: CCN(CC)C(=O)c1cc2cc(-c3ccc4c(c3)CC[C@H]3N(C)C(=O)CC[C@]43C)ccc2oc1=O [Example 214, (+)-(4aR)-(10bR)-4-methyl-8-[2-oxo-3-(N,N-diethylcarboxamido)-1-2H-benzopyran-6-yl)-10b-methyl-1,2,3,4,4a,5,6,10b-octahydrobenzo[f]quinolin-3-one]
- inhibition at 0.3 µM [1]: 29%
- inhibition at 0.3 µM [2]: 26%

SMILES: CN1C(=O)CC[C@]2(C)c3ccc(-c4cccc5ccccc45)cc3CC[C@@H]12 [Example 53, (+)-(4aR)-(10bR)-4-methyl-8-(1-naphthyl)-10b-methyl-1,2,3,4,4a,5,6,10b-octahydrobenzo[f]quinolin-3-one]
- inhibition at 0.3 µM [1]: 41%
- percent inhibition of Type I AR ([2]; 0.3 μM): 100% and 66%

SMILES: CN1C(=O)CC[C@]2(C)c3ccc(-c4cnc5ccccc5c4)cc3CC[C@@H]12 [Example 201, (+)-(4aR)-(10bR)-4-methyl-8-(3-quinolinyl)-10b-methyl-1,2,3,4,4a,5,6,10b-octahydrobenzo[f]quinolin-3-one]
- percent inhibition of Type II AR [1]: 57%
- inhibition at 0.3 µM [1]: 60%
- inhibition at 0.3 µM [2]: 69%

SMILES: C[C@]12CCC(=O)N[C@@H]1CCc1cc(Sc3cccc4ccccc34)ccc12 [Example 11, (+)-(4aR)-(10bR)-8-(1-naphthylthio)-10b-methyl-1,2,3,4,4a,5,6,10b-octahydrobenzo[f]quinolin-3-one]
- inhibition at 0.3 µM [1]: 40%
- inhibition at 0.3 µM [2]: 87%

SMILES: CN1C(=O)C=C[C@]2(C)c3ccc(-c4cccc5ccccc45)cc3CC[C@@H]12 [Example 117, (+)-(4aR)-(10bR)-4-methyl-8-(1-naphthyl)-10b-methyl-3,4,4a,5,6,10b-hexahydrobenzo[f]quinolin-3-one]
- inhibition at 0.3 µM [1]: 49%
- inhibition at 0.3 µM [2]: 46%

SMILES: COc1ccc(Sc2ccc3c(c2)CC[C@H]2NC(=O)CC[C@]32C)cc1 [Example 13, (+)-(4aR)-(10bR)-8-(4-methoxyphenylthio)-10b-methyl-1,2,3,4,4a,5,6,10b-octahydrobenzo[f]quinolin-3-one]
- inhibition at 0.3 µM [1]: 22%
- inhibition at 0.3 µM [2]: 11%

SMILES: CN1C(=O)CC[C@]2(C)c3ccc(Oc4ccc5ccccc5n4)cc3CC[C@@H]12 [Example 266, (+)-(4aR)-(10bR)-4-methyl-8-(2-quinolinyloxy)-10b-methyl-1,2,3,4,4a,5,6,10b-octahydrobenzo[f]quinolin-3-one]
- inhibition at 0.3 µM [1]: 44%
- inhibition at 0.3 µM [2]: 57%

SMILES: C[C@]12CCC(=O)N[C@@H]1CCc1cc(CSc3ccccc3)ccc12 [Example 289, (4aR)-(10bR)-8-phenylthiomethyl-10b-methyl-1,2,3,4,4a,5,6,10b-octahydrobenzo[f]quinolin-3-one]
- inhibition at 0.3 µM [1]: 24%
- inhibition at 0.3 µM [2]: 23%

SMILES: CN1C(=O)CC[C@]2(C)c3ccc(-c4ccccc4F)cc3CC[C@@H]12 [Example 38, (+)-(4aR)-(10bR)-4-methyl-8-(2-fluorophenyl)-10b-methyl-1,2,3,4,4a,5,6,10b-octahydrobenzo[f]quinolin-3-one]
- percent inhibition of Type II AR [1]: 38%
- inhibition at 0.3 µM [1]: 56%
- inhibition at 0.3 µM [2]: 84%

SMILES: CN1C(=O)CC[C@]2(C)c3ccc(Sc4ccccn4)cc3CC[C@@H]12 [Example 111, (+)-(4aR)-(10bR)-4,10b-dimethyl-8-(2-pyridinylthio)-1,2,3,4,-4a,5,6,10b-octahydrobenzo[f]quinolin-3-one]
- inhibition at 0.3 µM [1]: 38%
- inhibition at 0.3 µM [2]: 44%

SMILES: CN1C(=O)CC[C@]2(C)c3ccc(C(c4ccccc4)c4ccccc4)cc3CC[C@@H]12 [Example 139, (4aR)-(10bR)-8-diphenylmethyl-4,10b-dimethyl-1,2,3,4,-4a,5,6,10b-octahydrobenzo[f]quinolin-3-one]
- inhibition at 0.3 µM [1]: 59%
- inhibition at 0.3 µM [2]: 30%

SMILES: CN1C(=O)CC[C@]2(C)c3ccc(Sc4cncc5ccccc45)cc3CC[C@@H]12 [Example 114, (4aR)-(10bR)-4,10b-dimethyl-8-(4-isoquinolinylthio)-1,2,3,4,4a,5,6,10b-octahydrobenzo[f]quinolin-3-one]
- inhibition at 0.3 µM [1]: 47%
- inhibition at 0.3 µM [2]: 55%

SMILES: Cc1ccc(C(F)(F)F)c2sc(Sc3ccc4c(c3)CC[C@H]3N(C)C(=O)CC[C@]43C)nc12 [Example 190, (+)-(4aR)-(10bR)-4-methyl-8-(4-methyl-7-trifluoromethyl-2-benzothiazolylthio)-10b-methyl-1,2,3,4,4a,5,6,10b-octahydrobenzo[f]quinolin-3-one]
- inhibition at 0.3 µM [1]: 26%
- inhibition at 0.3 µM [2]: 76%

SMILES: CN1C(=O)CC[C@]2(C)c3ccc(-c4nnnn4-c4ccccc4)cc3CC[C@@H]12 [Example 258, (+)-(4aR)-(10bR)-4-methyl-8-(2-[3-phenyl]tetrazolyl)-10b-methyl-1,2,3,4,4a,5,6,10b-octahydrobenzo[f]quinolin-3-one]
- inhibition at 0.3 µM [1]: 16%
- inhibition at 0.3 µM [2]: 27%

SMILES: CN1C(=O)CC[C@]2(C)c3ccc(Sc4nc5c(-c6ccccc6)cccc5s4)cc3CC[C@@H]12 [Example 184, (+)-(4aR)-(10bR)-4-methyl-8-(4-phenyl-2-benzothiazolylthio)-10b-methyl-1,2,3,4,4a,5,6,10b-octahydrobenzo[f]quinolin-3-one]
- inhibition at 0.3 µM [1]: 81%
- inhibition at 0.3 µM [2]: 73%

SMILES: C[C@]12CCC(=O)N[C@@H]1CCc1cc(CSc3nc4ccccc4s3)ccc12 [Example 290, (4aR)-(10bR)-8-(2-benzothiazolyl)thiomethyl-10b-methyl-1,2,3,4,4a,5,6,10b-octahydrobenzo[f]quinolin-3-one]
- inhibition at 0.3 µM [1]: 8%
- inhibition at 0.3 µM [2]: 25%

SMILES: CN1C(=O)CC[C@]2(C)c3ccc(-c4ccccc4)cc3CC[C@@H]12 [Example 49, (+)-(4aR)-(10bR)-4-methyl-8-phenyl-10b-methyl-1,2,3,4,4a,5,6,10b-octahydrobenzo[f]quinolin-3-one]
- inhibition at 0.3 µM [1]: 4%
- inhibition at 0.3 µM [2]: 96%

SMILES: CN1C(=O)CC[C@]2(C)c3ccc(-c4ccc(C(=O)CCCCl)cc4)cc3CC[C@@H]12 [Example 221, (+)-(4aR)-(10bR)-4-methyl-8-[4-(4-chlorobutyryl)phenyl]-10b-methyl-1,2,3,4,4a,5,6,10b-octahydrobenzo[f]quinolin-3-one]
- inhibition at 0.3 µM [1]: 26%
- inhibition at 0.3 µM [2]: 95%

SMILES: CN1C(=O)CC[C@]2(C)c3ccc(-c4ccc(S(N)(=O)=O)cc4)cc3CC[C@@H]12 [Example 220, (+)-(4aR)-(10bR)-4-methyl-8-(4-sulfonamidophenyl)-10b-methyl-1,2,3,4,4a,5,6,10b-octahydrobenzo[f]quinolin-3-one]
- inhibition at 0.3 µM [1]: 26%
- inhibition at 0.3 µM [2]: 67%

SMILES: CN1C(=O)C=C[C@]2(C)c3ccc(-c4cccc([N+](=O)[O-])c4)cc3CC[C@@H]12 [Example 118, (+)-(4aR)-(10bR)-4-methyl-8-(3-nitrophenyl)-10b-methyl-3,4,4a,5,6,10b-hexahydrobenzo[f]quinolin-3-one]
- inhibition at 0.3 µM [1]: 43%
- inhibition at 0.3 µM [2]: 25%

SMILES: Cc1ccccc1Sc1ccc2c(c1)CC[C@H]1N(C)C(=O)CC[C@]21C [Example 101, (+)-(4aR)-(10bR)-4,10b-dimethyl-8-(2-methylphenylthio)-1,2,3,4,-4a,5,6,10b-octahydrobenzo[f]quinolin-3-one]
- inhibition at 0.3 µM [1]: 43%
- inhibition at 0.3 µM [2]: 75%

SMILES: CN1C(=O)CC[C@]2(C)c3ccc(SC(c4ccccc4)c4ccccc4)cc3CC[C@@H]12 [Example 195, (4aR)-(10bR)-8-diphenylmethylthio-4,10b-dimethyl-1,2,3,4,4a,5,6,10b-octahydrobenzo[f]-quinoline-3-one]
- inhibition at 0.3 µM [1]: 71%
- inhibition at 0.3 µM [2]: 90%

SMILES: CN1C(=O)CC[C@]2(C)c3ccc(-c4ccc(NC(=O)C(C)(C)C)nc4)cc3CC[C@@H]12 [Example 215, (+)-(4aR)-(10bR)-4-methyl-8-[2-(t-butylcarbonylamino)-5-pyridinyl]-10b-methyl-1,2,3,4,4a,5,6,10b-octahydrobenzo[f]-quinolin-3-one]
- inhibition at 0.3 µM [1]: 42%
- inhibition at 0.3 µM [2]: 84%

SMILES: CN1C(=O)CC[C@]2(C)c3ccc(-c4cc(Cl)sc4Cl)cc3CC[C@@H]12 [Example 132, (+)-(4aR)-(10bR)-4-methyl-8-(3-[2,5-dichlororo]thienyl)-10b-methyl-1,2,3,4,4a,5,6,10b-octahydrobenzo[f]quinolin-3-one]
- inhibition at 0.3 µM [1]: 24%
- inhibition at 0.3 µM [2]: 87%
